Several values for one entry are separate records, joined by “and”; a condition that tells them apart may be missing. Equal entries are not always repeated.
Test: molar heat capacity at constant pressure
Conditions: 101.33 kPa, Crystal, Small sample (50 mg) DSC

O=P([O-])([O-])[O-].[Dy+3] [dysprosium(III) phosphate]
Conditions	molar heat capacity at constant pressure
348.15 K	117.5 J/K/mol and 118.3 J/K/mol
353.15 K	119.1 J/K/mol and 119.4 J/K/mol
358.15 K	120.4 J/K/mol and 120.4 J/K/mol
363.15 K	121.5 J/K/mol and 121.3 J/K/mol
368.15 K	122.5 J/K/mol and 122.3 J/K/mol
373.15 K	123.3 J/K/mol and 123.2 J/K/mol
378.15 K	124.1 J/K/mol and 124.1 J/K/mol
383.15 K	124.9 J/K/mol and 124.9 J/K/mol
388.15 K	125.7 J/K/mol and 125.7 J/K/mol
393.15 K	126.4 J/K/mol and 126.5 J/K/mol
398.15 K	127.3 J/K/mol and 127.3 J/K/mol
403.15 K	128.1 J/K/mol and 128 J/K/mol
408.15 K	128.9 J/K/mol and 128.7 J/K/mol
413.15 K	129.6 J/K/mol and 129.4 J/K/mol
418.15 K	130.4 J/K/mol and 130.1 J/K/mol
423.15 K	131 J/K/mol and 130.8 J/K/mol
428.15 K	131.7 J/K/mol and 131.4 J/K/mol
433.15 K	132.3 J/K/mol and 132 J/K/mol
438.15 K	132.8 J/K/mol and 132.6 J/K/mol
443.15 K	133.4 J/K/mol and 133.2 J/K/mol
448.15 K	133.9 J/K/mol and 133.8 J/K/mol
453.15 K	134.5 J/K/mol and 134.3 J/K/mol
458.15 K	135 J/K/mol and 134.9 J/K/mol
463.15 K	135.5 J/K/mol and 135.4 J/K/mol
468.15 K	136.1 J/K/mol and 135.9 J/K/mol
473.15 K	136.6 J/K/mol and 136.4 J/K/mol
478.15 K	137 J/K/mol and 136.9 J/K/mol
483.15 K	137.4 J/K/mol and 137.4 J/K/mol
488.15 K	137.9 J/K/mol and 137.8 J/K/mol
493.15 K	138.3 J/K/mol and 138.3 J/K/mol
498.15 K	138.7 J/K/mol and 138.7 J/K/mol
503.15 K	139.1 J/K/mol and 139.1 J/K/mol
508.15 K	139.5 J/K/mol and 139.5 J/K/mol
513.15 K	139.9 J/K/mol and 140 J/K/mol
518.15 K	140.3 J/K/mol and 140.3 J/K/mol
523.15 K	140.7 J/K/mol and 140.7 J/K/mol
528.15 K	141 J/K/mol and 141.1 J/K/mol
533.15 K	141.3 J/K/mol and 141.5 J/K/mol
538.15 K	141.6 J/K/mol and 141.9 J/K/mol
543.15 K	142 J/K/mol and 142.2 J/K/mol
548.15 K	142.4 J/K/mol and 142.6 J/K/mol
553.15 K	142.7 J/K/mol and 142.9 J/K/mol
558.15 K	143 J/K/mol and 143.2 J/K/mol
563.15 K	143.4 J/K/mol and 143.6 J/K/mol
568.15 K	143.7 J/K/mol and 143.9 J/K/mol
573.15 K	143.9 J/K/mol and 144.2 J/K/mol
578.15 K	144.3 J/K/mol and 144.5 J/K/mol
583.15 K	144.6 J/K/mol and 144.8 J/K/mol
588.15 K	144.8 J/K/mol and 145.1 J/K/mol
593.15 K	145.1 J/K/mol and 145.4 J/K/mol
598.15 K	145.3 J/K/mol and 145.7 J/K/mol
603.15 K	145.6 J/K/mol and 145.9 J/K/mol
608.15 K	145.9 J/K/mol and 146.2 J/K/mol
613.15 K	146.1 J/K/mol and 146.5 J/K/mol
618.15 K	146.4 J/K/mol and 146.8 J/K/mol
623.15 K	146.7 J/K/mol and 147 J/K/mol
628.15 K	147 J/K/mol and 147.3 J/K/mol
633.15 K	147.3 J/K/mol and 147.5 J/K/mol
638.15 K	147.5 J/K/mol and 147.8 J/K/mol
643.15 K	147.8 J/K/mol and 148 J/K/mol
648.15 K	148 J/K/mol and 148.2 J/K/mol
653.15 K	148.2 J/K/mol and 148.5 J/K/mol
658.15 K	148.5 J/K/mol and 148.7 J/K/mol
663.15 K	148.8 J/K/mol and 148.9 J/K/mol
668.15 K	149.1 J/K/mol and 149.1 J/K/mol
673.15 K	149.3 J/K/mol and 149.3 J/K/mol
678.15 K	149.6 J/K/mol and 149.6 J/K/mol
683.15 K	149.9 J/K/mol and 149.8 J/K/mol
688.15 K	150.1 J/K/mol and 150 J/K/mol
693.15 K	150.4 J/K/mol and 150.2 J/K/mol
698.15 K	150.7 J/K/mol and 150.4 J/K/mol
703.15 K	150.9 J/K/mol and 150.6 J/K/mol
708.15 K	151.1 J/K/mol and 150.8 J/K/mol
713.15 K	151.4 J/K/mol and 151 J/K/mol
718.15 K	151.6 J/K/mol and 151.1 J/K/mol
723.15 K	151.8 J/K/mol and 151.3 J/K/mol
728.15 K	152 J/K/mol and 151.5 J/K/mol
733.15 K	152.1 J/K/mol and 151.7 J/K/mol
738.15 K	152.3 J/K/mol and 151.9 J/K/mol
743.15 K	152.5 J/K/mol and 152 J/K/mol
748.15 K	152.7 J/K/mol and 152.2 J/K/mol
753.15 K	152.9 J/K/mol and 152.4 J/K/mol
758.15 K	152.9 J/K/mol and 152.5 J/K/mol
763.15 K	153.1 J/K/mol and 152.7 J/K/mol
768.15 K	153.3 J/K/mol and 152.9 J/K/mol
773.15 K	153.4 J/K/mol and 153 J/K/mol
778.15 K	153.4 J/K/mol and 153.2 J/K/mol
783.15 K	153.6 J/K/mol and 153.3 J/K/mol
788.15 K	153.5 J/K/mol
793.15 K	153.7 J/K/mol and 153.6 J/K/mol
798.15 K	153.8 J/K/mol
803.15 K	154 J/K/mol and 153.9 J/K/mol
808.15 K	154.1 J/K/mol
813.15 K	154.2 J/K/mol
818.15 K	154.3 J/K/mol and 154.4 J/K/mol
823.15 K	154.4 J/K/mol and 154.5 J/K/mol
828.15 K	154.5 J/K/mol and 154.6 J/K/mol
833.15 K	154.5 J/K/mol and 154.8 J/K/mol
838.15 K	154.6 J/K/mol and 154.9 J/K/mol
843.15 K	154.8 J/K/mol and 155 J/K/mol
848.15 K	154.9 J/K/mol and 155.2 J/K/mol
853.15 K	154.9 J/K/mol and 155.3 J/K/mol
858.15 K	155 J/K/mol and 155.4 J/K/mol
863.15 K	155.1 J/K/mol and 155.6 J/K/mol
868.15 K	155.2 J/K/mol and 155.7 J/K/mol

— the NIST ThermoML archive (doi:10.1016/j.tca.2016.01.016)
